Several values for one entry are separate records, joined by “and”; a condition that tells them apart may be missing. Equal values may be shown once.
Tests used:
NF κB [1] = assay: NF κB activation caused by chemotherapeutic agent in OVCAR-3 cells; assay type: cell-based, human; parameters: level of active NF κB (as percents of control) in the absence of CMA: concentration or dose not given beside the values; conditions: for level of active NF κB (as percents of control) in the presence of CMA: its salt or ester 1 × 10^−12 M
Protocol: (§1) The level of active NF κB in cell extract was measured with StressXpress NF κB, p50 ELISA Kit (StressGen, cat. No EKS-445) and luminescent spectrophotometer SM 2203 (Solar, Belarus).
The experiments were performed as described in Example 1. The human ovarian carcinoma cell lines OVCAR-3 was used. The cells were incubated at 37° C. in RPMI 1640 medium supplemented with 10% embryonic calf serum. […] Corresponding chemical agent or the vehicle (control) was added to the culture medium simultaneously with CMA, its salt or ester (1×10^−12 M). The cells were separated by centrifugation. The level of active NF κB was assessed in nuclear lysate.

SK-OV-3 cells = assay: Survival of nude mice intraperitoneally injected with SK-OV-3 cells; assay type: in vivo; conditions: 0 mg/kg CMA
NF κB [2] = assay: Level of active NF κB in cancer cells of ascitic fluid of SK-OV-3 tumor-bearing nude mice; assay type: in vivo; conditions: 0 mg/kg CMA
Protocol: as §1
To study the ability of different amounts of CMA to inhibit the NF κB activity, tumor growth and to increase the survival rate in combination with a chemotherapeutic agent, BALB/c female nude mice (6 to 8 weeks of age) were intraperitoneally injected with SK-OV-3 cells (1×10^7 cells/0.5 ml media/mouse). The all mice were divided into the several groups of animals (32 animals per group) which were treated with different doses of CMA, its salts or its ester. All mice were injected also ether with vehicle (diluent) or with chemotherapeutic agent or with or combinations of chemotherapeutic agent. Some groups were injected additionally with one or other aromatase inhibior, along with chemotherapeutic agent. Cisplatin (CP) was administered at dose 5 mg/kg intraperitoneally once weekly for the first 3 weeks; Doxorubicin (Dox) was given 8 mg/kg intravenously on days 0 and 7; Paclitaxel (Pcl) was injected intravenously at dose 10 mg/kg body weight thrice weekly, on alternate days for 4 weeks; 10 mg/kg/day. Toremifen was administered per os at dose 10 mg/kg/day in starch gel. Anastozole was injected subcutaneously with 5 μg of […] in 0.1 mL of PBS. CMA was administered once a day on each second day.
Also, the day of 50% survival rate was scored for other 16 animals in each group group. The serum alpha interferon (alpha IFN) level was measured 2 hours after first administration of CMA, its salts or it ester. Mouse IFN-alpha was measured in serum was detected (in pg/ml) using the enzyme-linked immunosorbent assay kit purchased from PBL Biomedical Laboratories (USA, Piscataway, N.J.).

alpha interferon = assay: Serum alpha interferon in SK-OV-3 tumor-bearing nude mice (ELISA); assay type: in vivo; conditions: 0 mg/kg CMA
ovarian cancer [3] = assay: Clinical case reports of combined therapy of ovarian cancer (Examples 7-9); assay type: in vivo, human; conditions: Example 7: stage III patient; 2 courses of cisplatin alone
NF κB [4] = assay: Level of active NF κB in primary human ovarian cancer cells from ascitic fluid (StressXpress NF κB p50 ELISA); assay type: cell-based; conditions: 8 hours
ovarian cancer [5] = conditions: intraperitoneal alpha-interferon in combination with carboplatinum; cited from earlier work
ovarian cancer [6] = conditions: gamma-interferon added to cisplatinum+cyclophosphamide; cited from earlier work

Compound: N.N.[Cl][Pt][Cl] [Cisplatin, cisplatin]
- level of active NF κB (as percents of control) in the absence of CMA (NF κB [1]; Cisplatin alone): 117% and 121% and 120% and 119% and 118% and 125% and 122%
- day when 50% of animals in the group were still alive (SK-OV-3 cells; Cisplatin (CP) alone): 34 days and 44 days and 42 days
- level of NF kB (mean) (NF κB [2]; Cisplatin (CP) alone): 380 percent from the control and 356 percent from the control and 420 percent from the control
- interferon level (mean) (alpha interferon; Cisplatin (CP) alone): 4 pg/mL and 2 pg/mL and 3 pg/mL
- clinical outcome (ovarian cancer [3]): No therapy effects were observed

Compound: O=P1(N(CCCl)CCCl)NCCCO1 (centres unmarked) [Cyclophosphamide, cyclophosphamide]
- level of active NF κB (as percents of control) in the absence of CMA (NF κB [1]; Cyclophosphamide alone): 221% and 217% and 210% and 214%

Compound: COc1cccc2c1C(=O)c1c(O)c3c(c(O)c1C2=O)C[C@@](O)(C(=O)CO)C[C@@H]3O[C@H]1C[C@H](N)[C@H](O)[C@H](C)O1 [Doxorubicin, doxorubicin]
- level of active NF κB (as percents of control) in the absence of CMA (NF κB [1]; Doxorubicin alone): 524% and 538% and 550% and 497% and 562% and 540% and 531%
- day when 50% of animals in the group were still alive (SK-OV-3 cells; Doxorubicin (Dox) alone): 36 days and 37 days and 43 days
- level of NF kB (mean) (NF κB [2]; Doxorubicin (Dox) alone): 450 percent from the control and 470 percent from the control and 430 percent from the control
- interferon level (mean) (alpha interferon; Doxorubicin (Dox) alone): 3 pg/mL and 4 pg/mL and 5 pg/mL

Compound: CC(=O)O[C@H]1C(=O)[C@@]2(C)[C@H]([C@H](OC(=O)c3ccccc3)[C@]3(O)C[C@H](OC(=O)[C@H](O)[C@@H](NC(=O)c4ccccc4)c4ccccc4)C(C)=C1C3(C)C)[C@]1(OC(C)=O)CO[C@@H]1C[C@@H]2O [Paclitaxel, paclitaxel, reference compound]
- day when 50% of animals in the group were still alive (SK-OV-3 cells; Paclitaxel (Pcl) alone): 41 days and 40 days and 38 days
- level of NF kB (mean) (NF κB [2]; Paclitaxel (Pcl) alone): 420 percent from the control and 411 percent from the control and 442 percent from the control
- interferon level (mean) (alpha interferon; Paclitaxel (Pcl) alone): 8 pg/mL and 6 pg/mL and 5 pg/mL

Compound: CCCOC(=O)Cn1c2ccccc2c(=O)c2ccccc21 [PropCMA]
- active NF κB (in percents of control) (NF κB [4]; 1 × 10^−10 M, Patient 1): 32%/10
- active NF κB (in percents of control) (NF κB [4]; 1 × 10^−10 M, Patient 2): 31%/20
- active NF κB (in percents of control) (NF κB [4]; 1 × 10^−10 M, Patient 3): 36%/20
- active NF κB (in percents of control) (NF κB [4]; 1 × 10^−12 M, Patient 1): 68%/10
- active NF κB (in percents of control) (NF κB [4]; 1 × 10^−12 M, Patient 2): 59%/20
- active NF κB (in percents of control) (NF κB [4]; 1 × 10^−12 M, Patient 3): 64%/20
- active NF κB (in percents of control) (NF κB [4]; 1 × 10^−13 M, Patient 1): 89%/0
- active NF κB (in percents of control) (NF κB [4]; 1 × 10^−13 M, Patient 2): 91%/0
- active NF κB (in percents of control) (NF κB [4]; 1 × 10^−13 M, Patient 3): 81%/0
- level of active NF κB (as percents of control) in the presence of CMA (NF κB [1]; 5-FU + CMA): 86%
- level of active NF κB (as percents of control) (NF κB [1]; CMA, its salt or ester 1 × 10^−12 M + Vechicle): 84%
- level of active NF κB (as percents of control) in the presence of CMA (NF κB [1]; Cisplatin + CMA): 66%
- level of active NF κB (as percents of control) in the presence of CMA (NF κB [1]; Cyclophosphamide + CMA): 95%
- level of active NF κB (as percents of control) in the presence of CMA (NF κB [1]; Doxorubicin + CMA): 178%

Compound: alpha-interferon
- efficacy in respect of ovarian cancer (ovarian cancer [5]): did not prove any efficacy

Compound: gamma-interferon: cytokine immunomodulator with antiviral and antitumor activity
- number of patients who had no progression within the 3 year period (ovarian cancer [6]): 51%
